In article PMC3154012 (Journal of the American Chemical Society, 2011):

Key:
[1] = biological target: Mn-C1634 (thermostable chimeric P450 heme domain C1634); experiment: optical absorbance titration, two-component binding fit; set-up: species or system Priestia megaterium; Bacillus subtilis; conditions: Mn(III)-PPIX in place of heme; PBS; 5 μM protein
[2] = biological target: T1, Mn-BM3h (wild-type cytochrome P450 BM3 heme domain) (Priestia megaterium, UniProt P14779); experiment: optical absorbance titration; type: binding
T1 sequence (P14779 2-464 limits assumed): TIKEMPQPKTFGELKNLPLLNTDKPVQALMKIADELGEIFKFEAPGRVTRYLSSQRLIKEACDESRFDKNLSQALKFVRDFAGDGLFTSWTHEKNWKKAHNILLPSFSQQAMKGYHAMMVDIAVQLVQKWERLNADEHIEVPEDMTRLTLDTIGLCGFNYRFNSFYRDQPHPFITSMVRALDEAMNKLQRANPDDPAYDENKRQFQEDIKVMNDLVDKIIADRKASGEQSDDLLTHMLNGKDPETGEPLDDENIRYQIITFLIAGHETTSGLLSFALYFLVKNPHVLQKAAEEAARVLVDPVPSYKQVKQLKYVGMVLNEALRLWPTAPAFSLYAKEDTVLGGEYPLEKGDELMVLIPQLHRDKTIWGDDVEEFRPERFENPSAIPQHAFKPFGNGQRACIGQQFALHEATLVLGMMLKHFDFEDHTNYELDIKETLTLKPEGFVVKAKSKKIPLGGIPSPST

Molecule `CCCCC/C=C\C/C=C\C/C=C\C/C=C\CCCC(=O)O` [AA, arachidonic acid] has a Kd [1] of 2500 ± 700 nM and a Kd [2] of 700 ± 500 nM.
